In experiment [1] the target is T1, PSMA (Homo sapiens, UniProt Q04609).
T1 construct: host or cells: LNCaP cells
Description: In vitro competition binding assay ([^18F]DCFPyL displacement on LNCaP cells). Conditions: inhibition of [^18F]DCFPyL binding to PSMA-expressing LNCaP cells, n = 3. As to the method: All tested PSMA-targeted ligands inhibited the binding of [^18F]DCFPyL to PSMA-expressing LNCaP cells in a concentration-dependent manner (Figure 2, n = 3).
The in vitro competition binding assays were performed following our previously published procedures. Briefly, LNCaP cells in RMPI medium with FBS, penicillin, and streptomycin were plated onto 24-well poly-D-lysine coated plates at 200,000 cells/well 48 h prior to binding assay. The growth medium was removed and the cells were rinsed with HEPES-buffered saline (50 mM HEPES, pH 7.5, 0.9% NaCl) two times before 400 µL of HEPES buffer were added to each well. Varying concentrations of PSMA-targeted ligands (50 µL) were added to each well in triplicate before adding 0.1 nmol/50 µL of [^18F]DCFPyL. After the additions, plates were incubated and swirled at 37 °C. After 1 h incubation, the solutions were removed, and cells were washed with HEPES-buffered saline twice. Finally, 400 µL of 0.25% trypsin solution were added to each well. After 10 min incubation, cells were collected for counting using a PerkinElmer (Waltham, MA, USA) Wizard2 2480 automatic gamma counter. The Ki values were analyzed with GraphPad (San Diego, CA, USA) Prism 7 software using nonlinear regression fit.

Experiment [2] addresses T1, PSMA. Conditions: previous observation; cited from earlier work.

Structures are written as SMILES. Like-named read-outs stand apart in the source and are kept apart here.

T1 sequence (Q04609 whole entry): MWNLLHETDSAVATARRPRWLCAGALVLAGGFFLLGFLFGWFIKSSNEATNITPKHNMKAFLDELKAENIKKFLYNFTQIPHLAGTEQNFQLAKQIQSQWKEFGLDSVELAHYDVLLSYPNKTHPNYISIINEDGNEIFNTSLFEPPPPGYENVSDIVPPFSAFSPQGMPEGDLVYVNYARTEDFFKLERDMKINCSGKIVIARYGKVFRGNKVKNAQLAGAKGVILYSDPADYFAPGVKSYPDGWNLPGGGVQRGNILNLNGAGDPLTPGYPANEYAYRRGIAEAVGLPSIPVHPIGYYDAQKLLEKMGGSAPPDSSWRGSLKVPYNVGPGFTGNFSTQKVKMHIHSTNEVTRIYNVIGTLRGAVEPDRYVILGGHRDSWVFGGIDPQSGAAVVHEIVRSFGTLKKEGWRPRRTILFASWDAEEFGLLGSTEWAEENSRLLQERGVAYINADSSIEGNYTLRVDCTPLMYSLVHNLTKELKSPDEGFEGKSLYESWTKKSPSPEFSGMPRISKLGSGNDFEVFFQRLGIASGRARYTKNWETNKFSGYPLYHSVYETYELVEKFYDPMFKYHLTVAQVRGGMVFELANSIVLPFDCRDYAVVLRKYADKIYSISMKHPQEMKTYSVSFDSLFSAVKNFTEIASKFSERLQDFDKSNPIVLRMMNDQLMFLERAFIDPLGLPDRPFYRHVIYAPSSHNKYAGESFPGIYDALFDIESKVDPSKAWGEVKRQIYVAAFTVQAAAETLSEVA

Consider `NNc1ccc(C(=O)NC[C@H]2CC[C@H](C(=O)N[C@@H](Cc3c4ccccc4cc4ccccc34)C(=O)NCCCC[C@H](NC(=O)N[C@@H](CCC(=O)O)C(=O)O)C(=O)O)CC2)cn1` [KL01099], for which the affinity at PSMA [1] corresponds to a Ki of 10.7 nM. Still for that read-out and setting: then `NNc1ccc(C(=O)NC[C@H]2CC[C@H](C(=O)N[C@@H](Cc3c4ccccc4cc4ccccc34)C(=O)NCCCC[C@H](NC(=O)N[C@@H](CCCC(=O)O)C(=O)O)C(=O)O)CC2)cn1` [HTK03180], with 11.6 ± 1.5 nM; and `NNc1ccc(C(=O)N[C@@H](Cc2ccc3ccccc3c2)C(=O)NCCCC[C@H](NC(=O)N[C@@H](CCCC(=O)O)C(=O)O)C(=O)O)cn1` [KL01127], with 8.96 ± 0.58 nM. In the case of `O=C(O)CCC[C@H](NC(=O)N[C@@H](CCCCNC(=O)[C@H](Cc1c2ccccc2cc2ccccc12)NC(=O)[C@H]1CC[C@H](CNC(=O)CN2CCN(CC(=O)O)CCN(CC(=O)O)CCN(CC(=O)O)CC2)CC1)C(=O)O)C(=O)O` [HTK03149], at PSMA [2], the Ki (commonly a dissociation constant, usually derived from enzyme kinetics or from competition with a known ligand) was 6.99 nM. The molecule `NNc1ccc(C(=O)N[C@@H](Cc2ccc3ccccc3c2)C(=O)NCCCC[C@H](NC(=O)N[C@@H](CCC(=O)O)C(=O)O)C(=O)O)cn1` [HYNIC-iPSMA, reference compound] yielded a Ki on PSMA [1] of 3.11 nM.

These data come from publication PMC10343272, “Synthesis and Evaluation of ^99mTc-Labeled PSMA-Targeted Tracers Based on the Lys-Urea-Aad Pharmacophore for Detecting Prostate Cancer with Single Photon Emission Computed Tomography” (Molecules, 2023).
